According to ChEMBL document CHEMBL1125662, “Inhibition of human placental aromatase by novel homologated 19-oxiranyl and 19-thiiranyl steroids” (J Med Chem, 1991):

Biological target: T1, Aromatase (Homo sapiens, UniProt P11511)
T1 sequence (P11511 whole entry): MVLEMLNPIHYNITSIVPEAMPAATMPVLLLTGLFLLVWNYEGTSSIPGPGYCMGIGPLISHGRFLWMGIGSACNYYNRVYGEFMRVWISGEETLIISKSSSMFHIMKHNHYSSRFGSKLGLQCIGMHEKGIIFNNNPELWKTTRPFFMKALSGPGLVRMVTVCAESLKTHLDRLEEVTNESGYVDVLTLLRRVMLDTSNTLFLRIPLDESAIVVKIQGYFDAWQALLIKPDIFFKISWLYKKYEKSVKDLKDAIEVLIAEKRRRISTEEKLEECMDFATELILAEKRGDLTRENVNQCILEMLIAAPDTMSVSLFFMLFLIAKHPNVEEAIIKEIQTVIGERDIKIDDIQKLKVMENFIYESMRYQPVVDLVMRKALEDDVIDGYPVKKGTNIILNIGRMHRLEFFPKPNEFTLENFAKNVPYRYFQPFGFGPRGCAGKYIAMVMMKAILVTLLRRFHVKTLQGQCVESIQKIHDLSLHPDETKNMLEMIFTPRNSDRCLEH
Description: Inhibition of human placental Cytochrome P450 19A1

Question: How did the Ki turn out when `C[C@]12CC[C@H]3[C@@H](CCC4=CC(=O)CC[C@@]43C[C@@H]3CO3)[C@@H]1CCC2=O` was run?
Answer: 0.753 µM

Question: With `C[C@]12CC[C@H]3[C@@H](CCC4=CC(=O)CC[C@@]43C[C@H]3CO3)[C@@H]1CCC2=O` as the molecule, how does the Ki read?
Answer: 0.086 µM

Question: For `C[C@]12CC[C@H]3[C@@H](CCC4=CC(=O)CC[C@@]43C[C@H]3CS3)[C@@H]1CCC2=O`, which Ki is on record?
Answer: 0.022 µM

Question: Which Ki does the source give for `C[C@]12CC[C@H]3[C@@H](CCC4=CC(=O)CC[C@@]43C[C@@H]3CS3)[C@@H]1CCC2=O` here?
Answer: 0.206 µM
